In ChEMBL document CHEMBL4316618, “Synthesis and pharmacological evaluation of novel arylpiperazine oxicams derivatives as potent analgesics without ulcerogenicity” (Bioorg Med Chem, 2019):

Tests used:
[1] = tested on: Mus musculus; assay: (§1) Analgesic activity in formalin-induced nociception Albino Swiss CD-1 mouse model assessed as time spent on licking formalin injected hind paw during neurogenic phase at 10 mg/kg, ip pretreated for 30 mins followed by formalin induction measured up to 5 mins (reference value: 60.23 +/- 5.12 s); type: functional
[2] = tested on: Mus musculus; assay: as §1, with “inflammatory” for “neurogenic”, “20” for “10”, “after 15” for “up”, “30” for “5”, “138.5” for “60.23”, “8.55” for “5.12”; type: functional
[3] = Acute toxicity in ip dosed Albino Swiss CD-1 mouse measured for 24 hrs; type: organism-based; conditions: in vivo
[4] = tested on: Mus musculus; assay: as §1, with “inflammatory” for “neurogenic”, “after 15” for “up”, “30” for “5”, “138.5” for “60.23”, “8.55” for “5.12”; type: functional
[5] = tested on: Mus musculus; assay: as §1, with “inflammatory” for “neurogenic”, “5” for “10”, “after 15” for “up”, “30” for “5”, “138.5” for “60.23”, “8.55” for “5.12”; type: functional
[6] = Neurotoxicity in Albino Swiss CD-1 mouse assessed as motor impairment at 20 mg/kg, ip measured for 1 min at 6 to 24 rpm by rotarod test; type: toxicity, organism-based; conditions: in vivo
[7] = tested on: Mus musculus; assay: (§2) Analgesic activity in formalin-induced nociception Albino Swiss CD-1 mouse model assessed as time spent on licking formalin injected hind paw during neurogenic phase at 5 mg/kg, ip pretreated for 30 mins followed by formalin induction measured up to 5 mins (reference value: 60.23 +/- 5.12 s); type: functional
[8] = tested on: Mus musculus; assay: Potency index, ratio of piroxicam ED50 to test compound ED50 for analgesic activity in ip dosed formalin-induced nociception Albino Swiss CD-1 mouse model assessed as reduction in time spent on licking formalin injected hind paw during inflammatory phase; type: functional
[9] = tested on: Mus musculus; assay: Analgesic activity in formalin-induced nociception Albino Swiss CD-1 mouse model assessed as time spent on licking formalin injected hind paw during neurogenic phase at 20 mg/kg, ip pretreated for 30 mins followed by formalin induction measured up to 5 mins (reference value: 60.23 +/- 5.12 s); type: functional
[10] = Acute toxicity in Albino Swiss CD-1 mouse assessed as mortality at 2000 mg/kg, ip measured after 72 hrs relative to control; type: organism-based; conditions: in vivo
[11] = tested on: Mus musculus; assay: Analgesic activity in ip dosed formalin-induced nociception Albino Swiss CD-1 mouse model assessed as reduction in time spent on licking formalin injected hind paw during inflammatory phase pretreated for 30 mins followed by formalin induction measured after 15 to 30 mins; type: functional; conditions: Swiss CD-1, ip
[12] = tested on: Mus musculus; assay: Sedative activity in ip dosed Albino Swiss CD-1 mouse assessed as effect on locomotor activity by measuring reduction in number of light beam crossings treated for 30 mins measured for next 30 mins; type: organism-based; conditions: in vivo, 0.5 h
[13] = Acute toxicity in Albino Swiss CD-1 mouse assessed as mortality at 250 mg/kg, ip measured after 72 hrs relative to control; type: organism-based; conditions: in vivo
[14] = Acute toxicity in Albino Swiss CD-1 mouse assessed as mortality at 1000 mg/kg, ip measured after 72 hrs relative to control; type: organism-based; conditions: in vivo
[15] = tested on: Mus musculus; assay: Analgesic activity in ip dosed formalin-induced nociception Albino Swiss CD-1 mouse model assessed as reduction in time spent on licking formalin injected hind paw during neurogenic phase pretreated for 30 mins followed by formalin induction measured up to 5 mins; type: functional; conditions: Swiss CD-1, ip
[16] = Acute toxicity in Albino Swiss CD-1 mouse assessed as mortality at 500 mg/kg, ip measured after 72 hrs relative to control; type: organism-based; conditions: in vivo
[17] = Ulcerogenic activity in Wistar (Krf:(WI) WU) rat assessed as change in gastric mucosa at 25 mg/kg measured after 24 hrs by stereo microscopic analysis; type: toxicity, organism-based; conditions: in vivo
[18] = tested on: Mus musculus; assay: as §2, with “inflammatory” for “neurogenic”, “30” for “5”, “after 15” for “up”, “138.5” for “60.23”, “8.55” for “5.12”; type: functional
[19] = tested on: Mus musculus; assay: Analgesic activity in formalin-induced nociception Albino Swiss CD-1 mouse model assessed as time spent on licking formalin injected hind paw during neurogenic phase at 30 mg/kg, ip pretreated for 30 mins followed by formalin induction measured up to 5 mins (reference value: 60.23 +/- 5.12 s); type: functional

| SMILES | Time [1] [s] | Time [2] [s] | LD50 at 24 h [3] [mg/kg] | Time [4] [s] | Time [5] [s] | Activity [6] | Time [7] [s] | Ratio ED50 [8] | Time [9] [s] | mortality at 72 h [10] [%] | ED50 [11] [mg/kg] | ED50 [12] [mg/kg] | mortality at 72 h [13] [%] | mortality at 72 h [14] [%] | ED50 [15] [mg/kg] | mortality at 72 h [16] [%] | Activity [17] | Time [18] [s] | Time [19] [s] |
| --- | --- | --- | --- | --- | --- | --- | --- | --- | --- | --- | --- | --- | --- | --- | --- | --- | --- | --- | --- |
| Cc1ccc(C(=O)C2=C(O)c3ccccc3S(=O)(=O)N2CCCN2CCN(c3ccccc3)CC2)cc1 | 51.17 | 35.33 | > 2000 | 55.86 | 62.57 | Non-Toxic | 59 | 2 - 5 | 47.67 | 0 | 4.01 | 35.42 | – | – | – | – | – | – | – |
| Cc1ccc(C(=O)C2=C(O)c3ccccc3S(=O)(=O)N2CC(=O)N2CCN(c3ccccc3)CC2)cc1 | 39.75 | 28.86 | 569 | 46.86 | 90 | Non-Toxic | 44.86 | 2 - 5 | 31 | – | 7.22 | 40.34 | 0 | 83.3 | 22.8 | 66.7 | Non-Toxic | – | – |
| COc1ccccc1N1CCN(CCCN2C(C(=O)c3ccccc3)=C(O)c3ccccc3S2(=O)=O)CC1 | 55.71 | 35.86 | > 2000 | 68.17 | 92.17 | Non-Toxic | 55.83 | 2 - 5 | 51.4 | 0 | 9.03 | 33.18 | – | – | – | – | – | – | – |
| CN1C(C(=O)Nc2ccccn2)=C(O)c2ccccc2S1(=O)=O [PIROXICAM] | 58.71 | 67.43 | 360 | 108.25 | 116.1 | – | 61.31 | – | 59.16 | – | 18.9 | – | – | – | – | – | Toxic | 37.57 | 49.75 |
| O=C(C1=C(O)c2ccccc2S(=O)(=O)N1CCCN1CCN(c2cccc(C(F)(F)F)c2)CC1)c1ccccc1 | 42.86 | 48.6 | > 2000 | 59.17 | 78.5 | Non-Toxic | 51.5 | 2 - 5 | 35.11 | 0 | 7.14 | 38.41 | – | – | 27 | – | – | – | – |
| O=C(C1=C(O)c2ccccc2S(=O)(=O)N1CC(=O)N1CCN(c2ccccc2)CC1)c1ccccc1 | 34.29 | 49.71 | 500 | 68.86 | 81.13 | Non-Toxic | 41.17 | 2 - 5 | 25.83 | – | 8.85 | 31.55 | 16.7 | 83.3 | 13.9 | 50 | – | – | – |
| O=C(C1=C(O)c2ccccc2S(=O)(=O)N1CCCN1CCN(c2ccccc2)CC1)c1ccccc1 | 28.25 | 44.14 | > 2000 | 63 | 71.6 | Non-Toxic | 40 | 2 - 5 | 26.29 | 0 | 6.18 | 34.12 | – | – | 11.6 | – | – | – | – |
| O=C(C1=C(O)c2ccccc2S(=O)(=O)N1CC(=O)N1CCN(c2ccccc2)CC1)c1ccc(F)cc1 | 32 | 30.67 | 957 | 55.29 | 75.78 | Non-Toxic | 44.8 | 2 - 5 | 24.25 | 100 | 6.24 | 26.15 | – | 66.7 | 12.8 | 0 | Non-Toxic | – | – |
| COc1ccccc1N1CCN(C(=O)CN2C(C(=O)c3ccccc3)=C(O)c3ccccc3S2(=O)=O)CC1 | 45.63 | 55.71 | > 2000 | 63.13 | 77.29 | Non-Toxic | 50.71 | 2 - 5 | 38.29 | 0 | 7.93 | 32.1 | – | – | – | – | – | – | – |
| O=C(C1=C(O)c2ccccc2S(=O)(=O)N1CC(=O)N1CCN(c2ncccn2)CC1)c1ccc(Br)cc1 | 31.38 | 48.6 | > 2000 | 63.75 | 81.63 | Non-Toxic | 44.5 | 2 - 5 | 22.44 | 0 | 8.25 | 29.89 | – | – | 11.9 | – | Non-Toxic | – | – |
